According to patent US20030153539A1, “Method to potentiate the therapeutic efficacy of taxane and derivatives thereof” (priority 2000, published 2003):

Tests used:
CYP3A4 = CYP3A4 (Homo sapiens, UniProt P08684); assay: In vitro inhibition of cDNA expressed human CYP3A4 (testosterone substrate, radio-HPLC); details: for percentage of activity remaining in the presence of the compound: mean of n=3
Protocol: (§1) All incubations were conducted in triplicate.
(§2) See table 2 for HPLC mobile phase conditions.

CYP2C8 = target: T1, CYP2C8 (Homo sapiens, UniProt P10632); assay: Inhibition of CYP2C8 mediated 6α-hydroxylation of paclitaxel (human CYP2C8 cDNA expressed microsomes, HPLC-UV); assay type: biochemical; details: 20 μM paclitaxel
T1 construct: purchased Gentest (Woburn, Mass., USA)
T1 sequence (P10632 1-490): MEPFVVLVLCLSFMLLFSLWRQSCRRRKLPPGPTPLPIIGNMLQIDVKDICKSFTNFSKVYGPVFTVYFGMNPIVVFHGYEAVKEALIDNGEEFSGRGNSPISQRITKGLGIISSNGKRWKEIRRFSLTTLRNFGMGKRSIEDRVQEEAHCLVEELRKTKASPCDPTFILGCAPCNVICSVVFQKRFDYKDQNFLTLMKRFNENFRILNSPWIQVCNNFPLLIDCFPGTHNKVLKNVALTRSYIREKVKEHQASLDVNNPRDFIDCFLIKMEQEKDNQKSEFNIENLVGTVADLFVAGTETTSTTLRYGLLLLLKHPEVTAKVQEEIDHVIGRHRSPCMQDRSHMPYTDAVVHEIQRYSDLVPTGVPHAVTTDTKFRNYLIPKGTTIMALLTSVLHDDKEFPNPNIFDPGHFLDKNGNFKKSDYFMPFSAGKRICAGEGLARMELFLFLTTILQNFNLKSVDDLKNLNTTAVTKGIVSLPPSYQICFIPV
Protocol: A 100 μl reaction mixture containing 4 pmol CYP2C8, […] paclitaxel (5 mM paclitaxel stock in ethanol) and NADPH (2 mM) in 50 mM potassium phosphate buffer (pH 7.4) was incubated at 37° C. for 40 min in the absence (solvent only) and presence of either 100 μM estramustine or estromustine.
Estramustine and estromustine were dissolved in DMSO:CH3CN (1:1). The reaction was stopped by addition of 50 μl CH3CN followed by an additional 50 μl of mobile phase. […] All incubations were conducted in triplicate.
See table 2 for HPLC mobile phase conditions. Both paclitaxel and the metabolite 6a-hydroxypaclitaxel were detected by its absorbance at 230 nm.
To investigate if estramustine and estromustine were able to inhibit CYP2C8 mediated enzyme activities, human CYP2C8 cDNA expressed microsomes were incubated with paclitaxel in the presence of either estramustine or estromustine.

CYP2C19 = CYP2C19 (Homo sapiens, UniProt P33261); assay: In vitro inhibition of cDNA expressed human CYP2C19 ((S)-mephenytoin substrate, radio-HPLC); details: control 100%, mean of n=3
CYP2C19, sequence (P33261 whole entry): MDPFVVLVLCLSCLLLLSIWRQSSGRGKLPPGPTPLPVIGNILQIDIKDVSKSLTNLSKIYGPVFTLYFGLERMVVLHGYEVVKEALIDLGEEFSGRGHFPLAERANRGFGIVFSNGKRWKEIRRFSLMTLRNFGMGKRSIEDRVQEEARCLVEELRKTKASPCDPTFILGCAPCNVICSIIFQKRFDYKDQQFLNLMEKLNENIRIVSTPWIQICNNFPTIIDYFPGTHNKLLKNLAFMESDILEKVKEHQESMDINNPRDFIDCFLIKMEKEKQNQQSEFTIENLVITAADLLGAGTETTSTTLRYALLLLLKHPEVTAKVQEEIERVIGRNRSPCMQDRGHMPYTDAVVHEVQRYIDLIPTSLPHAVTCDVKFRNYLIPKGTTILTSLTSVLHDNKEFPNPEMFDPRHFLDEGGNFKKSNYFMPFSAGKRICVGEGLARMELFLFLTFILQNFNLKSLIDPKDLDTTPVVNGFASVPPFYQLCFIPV
Protocol: as §1, §2

CYP2D6 = CYP2D6 (Homo sapiens, UniProt P10635); assay: In vitro inhibition of cDNA expressed human CYP2D6 (delavirdine substrate, radio-HPLC); details: mean of n=3
CYP2D6, sequence (P10635 whole entry): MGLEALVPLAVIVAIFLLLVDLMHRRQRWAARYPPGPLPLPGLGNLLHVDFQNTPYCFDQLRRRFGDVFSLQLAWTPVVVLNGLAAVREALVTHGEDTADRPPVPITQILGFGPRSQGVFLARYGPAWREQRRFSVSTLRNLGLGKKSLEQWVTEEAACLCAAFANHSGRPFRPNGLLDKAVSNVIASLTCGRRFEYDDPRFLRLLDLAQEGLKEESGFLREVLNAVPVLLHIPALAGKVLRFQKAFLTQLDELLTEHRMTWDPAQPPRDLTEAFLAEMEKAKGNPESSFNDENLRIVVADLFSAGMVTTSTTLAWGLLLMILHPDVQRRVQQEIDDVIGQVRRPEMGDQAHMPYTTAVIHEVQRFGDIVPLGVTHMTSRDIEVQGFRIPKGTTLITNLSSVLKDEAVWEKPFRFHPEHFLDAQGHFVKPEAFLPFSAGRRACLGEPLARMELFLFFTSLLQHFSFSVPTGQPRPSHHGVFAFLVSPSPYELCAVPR
Protocol: as §1, §2

CYP1A2 = target: T2, CYP1A2 (Homo sapiens, UniProt P05177); assay: In vitro inhibition of cDNA expressed human CYP1A2 (chlorzoxazone substrate, radio-HPLC); details: mean of n=3
T2 sequence (P05177 1-516): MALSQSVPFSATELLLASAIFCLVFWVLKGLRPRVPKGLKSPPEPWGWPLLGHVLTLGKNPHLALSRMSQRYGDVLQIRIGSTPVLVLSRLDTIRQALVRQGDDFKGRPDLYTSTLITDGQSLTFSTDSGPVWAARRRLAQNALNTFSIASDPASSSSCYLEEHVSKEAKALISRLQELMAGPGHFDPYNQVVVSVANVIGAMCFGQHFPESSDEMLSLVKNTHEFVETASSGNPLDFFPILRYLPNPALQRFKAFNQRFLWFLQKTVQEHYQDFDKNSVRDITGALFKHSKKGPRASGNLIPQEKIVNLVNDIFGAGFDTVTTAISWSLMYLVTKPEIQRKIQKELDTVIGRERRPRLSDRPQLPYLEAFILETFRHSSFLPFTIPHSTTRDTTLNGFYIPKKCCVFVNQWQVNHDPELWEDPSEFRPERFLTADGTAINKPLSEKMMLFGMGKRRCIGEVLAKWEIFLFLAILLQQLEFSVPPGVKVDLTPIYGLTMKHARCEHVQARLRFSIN
Protocol: as §1, §2

CYP2C9 = CYP2C9 (Homo sapiens, UniProt P11712); assay: In vitro inhibition of cDNA expressed human CYP2C9 (diclofenac substrate, radio-HPLC); details: mean of n=3
CYP2C9, sequence (P11712 whole entry): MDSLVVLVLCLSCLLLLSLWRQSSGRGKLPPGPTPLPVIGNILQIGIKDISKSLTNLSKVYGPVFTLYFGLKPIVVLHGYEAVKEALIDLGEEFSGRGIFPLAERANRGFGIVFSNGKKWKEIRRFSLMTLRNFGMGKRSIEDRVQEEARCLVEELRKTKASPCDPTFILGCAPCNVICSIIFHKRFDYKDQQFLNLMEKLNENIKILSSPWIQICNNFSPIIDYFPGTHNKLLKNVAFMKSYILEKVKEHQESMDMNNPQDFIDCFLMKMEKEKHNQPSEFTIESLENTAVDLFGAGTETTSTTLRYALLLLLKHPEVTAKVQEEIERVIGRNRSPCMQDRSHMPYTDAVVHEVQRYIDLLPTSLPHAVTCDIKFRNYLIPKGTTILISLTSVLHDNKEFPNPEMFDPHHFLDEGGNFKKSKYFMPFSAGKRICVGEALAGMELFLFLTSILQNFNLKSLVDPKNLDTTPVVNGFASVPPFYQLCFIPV
Protocol: as §1, §2

[1] = CYP3A4, compound at 100 μM, control 100%
[2] = CYP2D6, compound at 100 μM, control 100%
[3] = CYP1A2, compound at 100 μM, control 100%
[4] = CYP2C9, compound at 100 μM, control 100%

CYP3A4, sequence (P08684 whole entry): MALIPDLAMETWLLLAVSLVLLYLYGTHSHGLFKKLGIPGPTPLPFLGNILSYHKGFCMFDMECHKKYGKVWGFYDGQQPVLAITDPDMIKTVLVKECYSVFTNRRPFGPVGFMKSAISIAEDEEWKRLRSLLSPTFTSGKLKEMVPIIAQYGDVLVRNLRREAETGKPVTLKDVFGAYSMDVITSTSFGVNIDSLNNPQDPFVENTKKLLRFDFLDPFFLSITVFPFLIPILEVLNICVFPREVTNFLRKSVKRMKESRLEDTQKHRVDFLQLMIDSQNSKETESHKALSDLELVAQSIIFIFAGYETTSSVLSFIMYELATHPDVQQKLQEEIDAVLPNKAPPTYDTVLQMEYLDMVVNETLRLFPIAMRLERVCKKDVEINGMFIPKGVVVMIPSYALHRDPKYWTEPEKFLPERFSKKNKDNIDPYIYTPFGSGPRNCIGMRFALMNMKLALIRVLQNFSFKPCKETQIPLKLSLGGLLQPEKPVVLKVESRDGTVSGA

| Compound | percentage of activity remaining in the presence of the compound (CYP3A4; [1]) [%] | percentage of activity remaining in the presence of the compound (CYP3A4; CYP3A4, control 100%) [%] | inhibition at 90 min, 100 µM (CYP3A4; human) [%] | inhibition at 40 min, 100 μM (CYP2C8; human, microsomes, pH 7.4, CYP2C8, compound at 100 μM) [%] | percentage of activity remaining in the presence of the compound (CYP2C19; CYP2C19, compound at 100 μM) [%] | percentage of activity remaining in the presence of the compound (CYP2C19; CYP2C19, first estramustine column, head prints 100 μM) [%] | percentage of activity remaining in the presence of the compound (CYP2D6; [2]) [%] | percentage of activity remaining in the presence of the compound (CYP2D6; CYP2D6, control 100%) [%] | percentage of activity remaining in the presence of the compound (CYP1A2; [3]) [%] | percentage of activity remaining in the presence of the compound (CYP1A2; CYP1A2, control 100%) [%] | percentage of activity remaining in the presence of the compound (CYP2C9; [4]) [%] | percentage of activity remaining in the presence of the compound (CYP2C9; CYP2C9, control 100%) [%] | percentage of activity remaining in the presence of the compound (CYP3A4; CYP3A4, compound at 10 μM, control 100%) [%] | inhibition of 6α-hydroxylation of paclitaxel (CYP2C8; CYP2C8, compound at 100 μM, 40 min) [%] | percentage of activity remaining in the presence of the compound (CYP2C19; CYP2C19, compound at 10 μM) [%] | percentage of activity remaining in the presence of the compound (CYP2D6; CYP2D6, compound at 10 μM, control 100%) [%] | percentage of activity remaining in the presence of the compound (CYP1A2; CYP1A2, compound at 10 μM, control 100%) [%] | percentage of activity remaining in the presence of the compound (CYP2C9; CYP2C9, compound at 10 μM, control 100%) [%] |
| --- | --- | --- | --- | --- | --- | --- | --- | --- | --- | --- | --- | --- | --- | --- | --- | --- | --- | --- |
| C[C@]12CC[C@@H]3c4ccc(OC(=O)N(CCCl)CCCl)cc4CC[C@H]3[C@@H]1CC[C@@H]2O [Estramustine, estramustine] | 20.2 | 27.0 | ~80 | 40 | 40.1 | 37.9 | 32.7 | 38.0 | 57.2 | 72.7 | 58.8 | 56.4 |  |  |  |  |  |  |
| C[C@]12CC[C@@H]3c4ccc(OC(=O)N(CCCl)CCCl)cc4CC[C@H]3[C@@H]1CCC2=O [Estromustine, estromustine] | 33.1 |  |  |  | 81.0 |  | 76.9 |  | 68.4 |  | 86.9 |  | 43.2 | 20 | 90.6 | 64.1 | 85.0 | 92.5 |
